Experimental data published in US20220133702A1, “CYSTIC FIBROSIS TRANSMEMBRANE CONDUCTANCE REGULATOR MODULATORS FOR TREATING AUTOSOMAL DOMINANT POLYCYSTIC KIDNEY DISEASE” (The Johns Hopkins University, priority 2020, published 2022).

What was measured:
[1] = tested on: intracellular Ca^2+ in PN cells; test: Fura-2 Ca2+ imaging assay; assay type: cell-based, mouse; details: 10 μM, 16 h
Procedure: FIG. 5A, FIG. 5B, FIG. 5C, FIG. 5D, FIG. 5E, and FIG. 5F show intracellular Ca^2+ (F340/F380) levels obtained by ratiometric Fura-2 AM analysis of PN cells treated with VX-809 (10 μM) for 16 h. (FIG. 5A) Representative traces of intracellular Ca^2+ release in response to ATP (100 μM) in PN cells and cells treated with VX-809 (10 μM). (FIG. 5B, FIG. 5C) Graphs summarizing resting calcium levels (FIG. 5B) and the average amplitude of Ca^2+ release (FIG. 5C) in response to ATP. (FIG. 5D) Representative traces of ER Ca^2+ release in response to thapsigargin (4 μM) in PN cells treated with VX-809. (FIG. 5E, FIG. 5F) Resting calcium levels (FIG. 5E) and the average amplitude of Ca^2+ release (FIG. 5F) in response to thapsigargin. Amplitude was measured as the […] of the signal base to peak Δf/f. Significance between the two groups was analyzed using Student's t-test, n=4-5). *P<0.05, ***P<0.001.
Ca^2+-dependent signal transduction is associated with cyst formation. […] To address the effect of VX-809 on this Ca^2+ release, the cells were treated with thapsigargin, a specific inhibitor of the ER Ca^2+-ATPase which, when applied, allows Ca^2+ to leak out of the ER through independent Ca^2+-permeable pathways. A small effect of VX-809 on resting Ca^2+ was observed.
Fura-2 Ca^2+ imaging assay. On Day 5 of cell culture, the cells were loaded with the cell-permeant acetoxymethyl (AM) ester of the calcium indicator fura-2 (fura-2/AM) at 37° C. for 90 min. Measurements were made on a Zeiss inverted microscope equipped with a Sutter Lambda 10-2 controller and filter wheel assembly. For ATP stimulation experiments, the cells were exposed to 100 μM ATP diluted in the imaging buffer. A Zeiss FluorArc mercury lamp was used to excite the cells at 340 and 380 nm, and the emission response was measured at 510 nm Cell fluorescence was measured in response to excitation for 1000 ms at 340 nm and 200 ms at 380 nm once every 4 s. Image acquisition, image analysis, and filter wheel control were performed with IPLab software.

[2] = tested on: adenylyl cyclase (AC) 6 and AC3 in PN cells; test: Western blot of adenylyl cyclase expression; assay type: cell-based, mouse; details: PN cells treated with VX-809
Procedure: FIG. 4A, FIG. 4B, FIG. 4C, FIG. 4D, and FIG. 4E show (FIG. 4A-FIG. 4B) cAMP levels are reduced by VX-809. (FIG. 4A) cAMP levels in mouse tissue were reduced by VX-809. The kidney samples (n=6) analyzed were taken from those depicted in FIG. 1. (FIG. 4B) Confluent PN and PH cells were treated with VX-809 (10 μM) or DMSO for 16 hand then treated with forskolin (100 μM) for 30 min before the cells were harvested for the assay. Columns represent means±SEM. Statistical analysis was performed using a two-tailed Student's t-test. Each set of data is from three individual wells; Note that resting cAMP is greater in PN vs PH cells as previously shown (25). Also note that forskolin caused a large increase in cAMP. A smaller increase occurred with IBMX. However, the increase induced by forskolin alone was similar to that by IBMX plus forskolin. […] (FIG. 4C, FIG. 4D, and FIG. 4E) Adenylyl cyclase expression. (FIG. 4C) Western blot showing the expression of adenylyl cyclase (AC) 6 and AC3 in treated and control PN cells. (FIG. 4D-FIG. 4E) Columns represent means±SEM of the AC3 and AC6 expression. The data were analyzed by non-parametric t-test. The experiment was repeated four times. For all graphs, *P<0.05, **P<0.01, and ***P<0.001;
There are two classes of adenylyl cyclases that are regulated by intracellular Ca^2+: one class is activated, and the other inhibited. […]

CFTR = test: Confocal localization of CFTR with ER, Golgi and PM markers; assay type: cell-based; details: treated vs control cells, Pearson's correlation with markers
Text: FIG. 18A and FIG. 18B show images of confocal microscopy localization studies of CFTR and localization markers in control and treated cells (FIG. 18A) and graphs showing Pearson's correlation coefficient for CFTR and localization markers in control and VX-809 treated cells (FIG. 18B).
The localization of PC2 and CFTR in control cells was compared to the localization of PC2 and CFTR localization in VX-809 treated cells.

Cc1ccc(NC(=O)C2(c3ccc4c(c3)OC(F)(F)O4)CC2)nc1-c1cccc(C(=O)O)c1 [VX-809, lumacaftor]
intracellular Ca^2+ movement in response to ATP ([1]; ATP 100 μM): no effect | resting Ca^2+ ([1]; ATP experiment): small reduction | thapsigargin-induced release of Ca^2+ from the ER ([1]; thapsigargin 4 μM): dramatically reduced | resting Ca^2+ ([1]; thapsigargin experiment): small effect | AC3 levels [2]: decreased | AC6 regulation [2]: Regulates AC3 but not AC6 | CFTR localization (CFTR): statistically significant move of CFTR from the ER to Basolateral and Apical Membrane
